In PubChem BioAssay AID2060349 (Molecular Pharmacology Branch, DTP, NCI, 2025):
Each block holds one compound with its values, some of them ahead of it.

Tested on: 762968-020-R-J2-PDC spheroids viability
Assay: Anticancer human tumor 762968-020-R-J2-PDC patient-derived colon carcinoma cell line growth inhibition [TAK]
Conditions: spheroids with HUVEC and MSC; for viability, T/C: stronger effect = lower value
Text: Combinatorial screen of targeted agents with TAK-243 and ipatasertib in multi-cell type tumor spheroids
A high-throughput screen of multi-cell type tumor spheroids was designed to identify active combinations of targeted small molecules and TAK-243 or ipatasertib. Complex spheroids include a stromal component modeled by human endothelial cells (HUVEC) and fibroblasts modeled by human mesenchymal stem cells (MSCs). The concentration ranges selected for each drug and investigational agent were based upon clinically achievable concentrations if the clinical Cmax of the agent was known.
Compounds. The drugs and investigational agents: TAK-243 (785004), ipatasertib (767898), everolimus (733504), selumetinib (741078), bortezomib (756655), trametinib (758246), ixazomib (758254), vemurafenib (761431), dabrafenib (764134), sapanisertib (764658), alpelisib (765974), and copanlisib (816437), were obtained from the National Cancer Institute (NCI) Developmental Therapeutics Program Chemical Repository. The FDA-approved anticancer drug set is available from the NCI Developmental Therapeutics Program. […] The stock solutions were prepared in dimethyl sulfoxide (DMSO, Sigma-Aldrich, St. Louis, MO, cat. D2650) at 800-fold the tested concentration and stored at -70 degrees C prior to their use. All drugs and investigational agents were tested over a range starting from a high concentration at or near the clinical Cmax and decreasing in half-log increments. If the clinical Cmax for an agent had not been determined, the highest concentration tested was 10 microM.
NCI60 Cell Culture. NCI60 cell lines were obtained from the NCI Developmental Therapeutics Program Tumor Repository. For each lot of cells, the Repository performed Applied Biosystems AmpFLSTR Identifiler testing with PCR amplification to confirm consistency with the published Identifier STR profile for each cell line. Cells were kept in continuous culture for no more than 20 passages. The optimal seeding densities for each of the cell lines at each time point assessed were determined prior to performing the concentration response studies. Briefly, the NCI60 human tumor lines were grown as monolayers in RPMI 1640 medium supplemented with 10% FBS and 2 mmol/L L-glutamine.
An additional 2 lines were from the NCI60 cell line panel including melanomas, MALME-3M and SK-MEL-2. Pooled donor human umbilical vein endothelial cells (HUVEC, Lonza, cat. CC-2519) and human mesenchymal stem cells (hMSC, Lonza, cat. PT-2501) were purchased from Lonza (Walkersville, MD).
PDMR cell lines were grown in complete medium (DC medium): Dulbecco's modified Eagle's medium (DMEM)/F12 supplemented with 5% fetal bovine serum (FBS), 2 mM L-glutamine, 100 U/mL penicillin and 100 µg/ml streptomycin, 0.4 µg/ml hydrocortisone, 10 ng/ml epidermal growth factor (EGF) recombinant human protein, 24 µg/mL adenine, and 0.1 mg/mL primocin. During culture from frozen stock vials, PDMR cells were cultured in the same medium containing 10 µM Y-27632 (see Table 3). The PDCs were cultured in complete DMEM/F12 media without 10 microM Y-27632 dihydrochloride for at least two passages prior to the screen. The pooled donor HUVEC and hMSC were cultured in endothelial cell growth medium 2 (PromoCell, Heidelberg, Germany, cat. C-22011) and mesenchymal stem cell growth medium 2 (PromoCell, cat. C-28009), respectively. For all experiments, HUVEC and hMSC were used at passages </=5.
For the pre-screen, cell seeding densities were determined from a titration spanning the range from 5,000 to 313 cells per well. The mct-spheroids including 60% malignant cells, 25% HUVEC and 15% MSC dispensed as a mixture into U-bottom Ultra-Low Attachment 384-well plates (Corning, NY)
High-throughput Drug Combination Screening.
Prior to their inoculation into 384-well plates, malignant cells, HUVEC, and hMSC were removed from T flasks using TrypLE express (Thermo Fisher Scientific, cat. 12605036) and harvested by centrifugation for 5 min at 233 x g. […]

[1] = curve of first compound, second compound 0.3 µM
[2] = curve of first compound, second compound 0.949 µM
[3] = curve of first compound, second compound 3 µM
[4] = curve of first compound, second compound 9.49 µM
[5] = curve of first compound, second compound 30 µM
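Further: spheroids exposed to drug for 7 days before readout.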
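Wherever viability, T/C is given: 100% = DMSO vehicle control wells.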

IC50 (compound alone, run of 02/28/2020): 17.2 µM | IC50 (compound alone, run of 03/19/2020): > 30 µM
SMILES: CC(C)NCC(C(=O)N1CCN(c2ncnc3c2C(C)CC3O)CC1)c1ccc(Cl)cc1 (stereo unspecified)
viability, T/C (compound 0.3 µM): 103% [middle of 10 runs] | viability, T/C (compound 0.949 µM): 101% [middle of 10 runs] | viability, T/C (compound 3 µM): 104% [middle of 10 runs] | viability, T/C (compound 9.49 µM): 99.7% [middle of 10 runs]

SMILES: CC(C)CC(NC(=O)C(Cc1ccccc1)NC(=O)c1cnccn1)B(O)O (stereo unspecified) + CC(C)NCC(C(=O)N1CCN(c2ncnc3c2C(C)CC3O)CC1)c1ccc(Cl)cc1
IC50 [1]: > 0.01 µM | IC50 [2]: > 0.01 µM | IC50 [3]: > 0.01 µM | IC50 [4]: > 0.01 µM | IC50 [5]: > 0.01 µM | viability, T/C (second compound 0.3 µM, first compound 31.6 pM): 101% | viability, T/C (second compound 0.3 µM, first compound 0.0001 µM): 101% | viability, T/C (second compound 0.3 µM, first compound 0.000316 µM): 108% | viability, T/C (second compound 0.3 µM, first compound 0.001 µM): 102% | viability, T/C (second compound 0.3 µM, first compound 0.00316 µM): 98.3% | viability, T/C (second compound 0.3 µM, first compound 0.01 µM): 98.1% | viability, T/C (second compound 0.949 µM, first compound 31.6 pM): 103% | viability, T/C (second compound 0.949 µM, first compound 0.0001 µM): 102% | viability, T/C (second compound 0.949 µM, first compound 0.000316 µM): 96.1% | viability, T/C (second compound 0.949 µM, first compound 0.001 µM): 100% | viability, T/C (second compound 0.949 µM, first compound 0.00316 µM): 105% | viability, T/C (second compound 0.949 µM, first compound 0.01 µM): 85.5% | viability, T/C (second compound 3 µM, first compound 31.6 pM): 108% | viability, T/C (second compound 3 µM, first compound 0.0001 µM): 109% | viability, T/C (second compound 3 µM, first compound 0.000316 µM): 106% | viability, T/C (second compound 3 µM, first compound 0.001 µM): 98.8% | viability, T/C (second compound 3 µM, first compound 0.00316 µM): 106% | viability, T/C (second compound 3 µM, first compound 0.01 µM): 89% | viability, T/C (second compound 9.49 µM, first compound 31.6 pM): 98.5% | viability, T/C (second compound 9.49 µM, first compound 0.0001 µM): 98.7% | viability, T/C (second compound 9.49 µM, first compound 0.000316 µM): 99.3% | viability, T/C (second compound 9.49 µM, first compound 0.001 µM): 104% | viability, T/C (second compound 9.49 µM, first compound 0.00316 µM): 98.9% | viability, T/C (second compound 9.49 µM, first compound 0.01 µM): 97.5% | viability, T/C (second compound 30 µM, first compound 31.6 pM): 87.7% | viability, T/C (second compound 30 µM, first compound 0.0001 µM): 91.9% | viability, T/C (second compound 30 µM, first compound 0.000316 µM): 87.4% | viability, T/C (second compound 30 µM, first compound 0.001 µM): 85.4% | viability, T/C (second compound 30 µM, first compound 0.00316 µM): 95.3% | viability, T/C (second compound 30 µM, first compound 0.01 µM): 87.2%

SMILES: CC(=O)Nc1cccc(-n2c(=O)n(C3CC3)c(=O)c3c(Nc4ccc(I)cc4F)n(C)c(=O)c(C)c32)c1 + CC(C)NCC(C(=O)N1CCN(c2ncnc3c2C(C)CC3O)CC1)c1ccc(Cl)cc1
IC50 [1]: 0.0202 µM | IC50 [2]: 0.0208 µM | IC50 [3]: 0.0231 µM | IC50 [4]: 0.0177 µM | IC50 [5]: 0.0162 µM | viability, T/C (second compound 0.3 µM, first compound 94.9 pM): 98.7% | viability, T/C (second compound 0.3 µM, first compound 0.0003 µM): 104% | viability, T/C (second compound 0.3 µM, first compound 0.000949 µM): 91.6% | viability, T/C (second compound 0.3 µM, first compound 0.003 µM): 82.2% | viability, T/C (second compound 0.3 µM, first compound 0.00949 µM): 70.1% | viability, T/C (second compound 0.3 µM, first compound 0.03 µM): 39.7% | viability, T/C (second compound 0.949 µM, first compound 94.9 pM): 92.9% | viability, T/C (second compound 0.949 µM, first compound 0.0003 µM): 98.1% | viability, T/C (second compound 0.949 µM, first compound 0.000949 µM): 91.8% | viability, T/C (second compound 0.949 µM, first compound 0.003 µM): 96% | viability, T/C (second compound 0.949 µM, first compound 0.00949 µM): 74.5% | viability, T/C (second compound 0.949 µM, first compound 0.03 µM): 38.5% | viability, T/C (second compound 3 µM, first compound 94.9 pM): 101% | viability, T/C (second compound 3 µM, first compound 0.0003 µM): 103% | viability, T/C (second compound 3 µM, first compound 0.000949 µM): 97.4% | viability, T/C (second compound 3 µM, first compound 0.003 µM): 90.2% | viability, T/C (second compound 3 µM, first compound 0.00949 µM): 80.2% | viability, T/C (second compound 3 µM, first compound 0.03 µM): 41.1% | viability, T/C (second compound 9.49 µM, first compound 94.9 pM): 96.1% | viability, T/C (second compound 9.49 µM, first compound 0.0003 µM): 99.1% | viability, T/C (second compound 9.49 µM, first compound 0.000949 µM): 95.6% | viability, T/C (second compound 9.49 µM, first compound 0.003 µM): 80.6% | viability, T/C (second compound 9.49 µM, first compound 0.00949 µM): 67.3% | viability, T/C (second compound 9.49 µM, first compound 0.03 µM): 36.3% | viability, T/C (second compound 30 µM, first compound 94.9 pM): 90.3% | viability, T/C (second compound 30 µM, first compound 0.0003 µM): 87.7% | viability, T/C (second compound 30 µM, first compound 0.000949 µM): 80.3% | viability, T/C (second compound 30 µM, first compound 0.003 µM): 71.4% | viability, T/C (second compound 30 µM, first compound 0.00949 µM): 60.9% | viability, T/C (second compound 30 µM, first compound 0.03 µM): 38.8%
